Key:
[1] = test system: Human iPS cell-derived intestinal epithelial cells F-hiSIEC; test: Gene expression of EEC markers in F-hiSIEC cells cultured with LY411575 or DAPT added (culture media of Table 2, real-time PCR, Day 9); format: cell-based
Excerpt: (§1) Human iPS cell-derived intestinal epithelial cells (including intestinal stem cells, LGR5+ cells) F-hiSIEC™ (FUJIFILM Corporation) were thawed on the day 0 and seeded at 1.0×10^6 cells/well on a cell culture insert coated with Matrigel™ (Corning Incorporated) by using F-hiSIEC™ Seeding Medium (FUJIFILM Corporation), and then from the next day, the culture medium was exchanged every other day with each culture medium (culture medium compositions 7 to 13) in Table 2. Coating, seeding, and culture medium exchange were carried out according to the F-hiSIEC instruction manual to obtain a cell sheet. The total RNA was extracted from the cells on the Day 9. For RNA extraction, the cells were lysed with Qiazol (QIAGEN), 20% of chloroform was added thereto, mixed, and centrifuged at 12,000 g for 10 minutes to obtain a solution, and the supernatant of the solution was recovered. Total RNA was extracted from the supernatant according to the manual using an RNeasy mini kit (QIAGEN). cDNA was synthesized from the total RNA using a High Capacity RNA-to-cDNA kit (Applied Biosystems) according to the manual. The obtained cDNA was subjected to the measurement of the gene expression level by using a ViiA7 real-time PCR system (Applied Biosystems) with a Taqman Gene Expression Assay system and a Taqman Gene Expression Master Mix (Applied Biosystems). The Taqman Assay ID used were as follows: 18s: 03003631_g1. CHGA: Hs00900370_m1. PYY: Hs00373890_g1, and NEUROG3: Hs01875204_s1.
(§2) Gene expression levels for comparison are indicated in terms of relative value in a case where the expression in the control group cultured in the F-hiSIEC Culture Medium is corrected with the expression level of the internal standard gene 18S according to the […] and then is set to 1.

[2] = test system: Human iPS cell-derived intestinal epithelial cells F-hiSIEC; test: Gene expression of EEC markers in F-hiSIEC cells cultured in culture media of Table 1 (real-time PCR, Day 9); format: cell-based; details: LY411575 (composition 4, 1 μmol/L, no EGF) compared with DAPT (composition 6, 10 μmol/L)
Excerpt: as §1, with “compositions 1” for “compositions 7”, “to 6)” for “to 13)”, “Table 1.” for “Table 2.”, “18s: 03003631_g1,” for “18s: 03003631_g1.”, “CHGA: Hs00900370_m1, TPH1: Hs00188220_m1,” for “CHGA: Hs00900370_m1.”, “and REG4: Hs00230746_m1.” for “and NEUROG3: Hs01875204_s1.”
as §2

[3] = LY411575 2 μmol/L addition group (culture medium composition 11), among compositions 7 to 13
[4] = LY411575 addition groups (0.5 to 2.0 μmol/L) compared with DAPT addition groups (5 to 10 μmol/L), no EGF, FIG. 2

## C[C@H](NC(=O)[C@@H](O)c1cc(F)cc(F)c1)C(=O)N[C@@H]1C(=O)N(C)c2ccccc2-c2ccccc21 [LY411575]
[1]; [3]
  expression level of CHGA: highest
  expression level of NEUROG3: highest
  expression level of PYY: highest
[1]; [4]
  expression of CHGA: high
  expression of PYY: remarkably high
[2]
  expression of CHGA: remarkably high
  expression of PYY: remarkably high
  expression of Reg4: remarkably high
  expression of TPH1: remarkably high
